Consider six molecules from ChEMBL document CHEMBL1212926, “Design of potent inhibitors of human RAD51 recombinase based on BRC motifs of BRCA2 protein: modeling and experimental validation of a chimera peptide” (J Med Chem, 2010).

Activity calls are given as the source filed them. The rule behind the calls is not given here. Where a SMILES comes first, the peptide text is derived from it. Where only a bound is given, the exact number is not on record here.

What is called IC50 is the concentration at which inhibition is half-maximal. By Ki is commonly meant a measure of affinity in units of concentration, obtained from inhibition or displacement.

Assay [1] has as its target T1, DNA repair protein RAD51 homolog 1 (Homo sapiens) (UniProt Q06609).
T1 sequence (whole entry): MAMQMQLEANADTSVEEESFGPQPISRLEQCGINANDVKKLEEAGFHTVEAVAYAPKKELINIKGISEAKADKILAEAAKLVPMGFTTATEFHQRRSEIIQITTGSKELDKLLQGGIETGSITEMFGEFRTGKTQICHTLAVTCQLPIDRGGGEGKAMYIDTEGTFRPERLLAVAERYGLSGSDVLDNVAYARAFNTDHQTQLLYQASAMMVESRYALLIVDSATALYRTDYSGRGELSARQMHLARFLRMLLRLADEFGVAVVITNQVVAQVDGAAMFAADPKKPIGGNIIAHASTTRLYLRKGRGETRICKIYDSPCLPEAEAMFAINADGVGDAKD
Nature of the assay: Binding affinity to human RAD51 by isothermal titration calorimetry.

In assay [2] the target is T1, DNA repair protein RAD51 homolog 1 (Homo sapiens). Briefly: Binding affinity to human RAD51 at 40 uM by circular dichroism assay. (In general: Circular dichroism is the unequal absorption of left and right circularly polarised light.)
Assay [3] has the same target. Briefly: Inhibition of human RAD51-mediated 58-mer single-stranded DNA strand exchange activity at 5 to 15 uM after 1 hr by PAGE.
In assay [4] the target is T2, DNA repair protein RAD51 homolog 1 (Homo sapiens, UniProt Q06609).
T2 sequence (Q06609 whole entry): T1 sequence (whole entry)
Briefly: Inhibition of human RAD51 assessed as dissociation of protein/single-stranded poly-(d-epsilonA) complex formation by fluorescence polarimetry.

Assay [5] concerns the target T2, DNA repair protein RAD51 homolog 1. Nature of the assay: Inhibition of human RAD51 assessed as concentration required for half dissociation of protein/single-stranded DNA complex formation by fluorescence polarimetry.
Assay [6] has the same target. Briefly: Inhibition of human RAD51 assessed as dissociation of protein/single-stranded oligo(AGT)12 complex formation by fluorescence polarimetry.

In turn, `CC[C@H](C)[C@H](NC(=O)[C@H](CCCCN)NC(=O)[C@@H](NC(=O)[C@H](CCCCN)NC(=O)[C@H](CCCCN)NC(=O)CNC(=O)[C@H](CO)NC(=O)[C@H](C)NC(=O)[C@@H](NC(=O)[C@H](Cc1cnc[nH]1)NC(=O)[C@H](Cc1ccccc1)NC(=O)CN)[C@@H](C)O)C(C)C)C(=O)N[C@@H](C)C(=O)N[C@@H](CCCCN)C(=O)N[C@@H](CCC(=O)O)C(=O)N[C@@H](CO)C(=O)N[C@@H](CC(C)C)C(=O)N[C@@H](CC(=O)O)C(=O)N[C@@H](CCCCN)C(=O)N[C@H](C(=O)N[C@@H](CCCCN)C(=O)N[C@@H](CC(N)=O)C(=O)N[C@@H](Cc1ccccc1)C(=O)N[C@@H](Cc1ccccc1)C(=O)O)C(C)C` yielded a K in assay [1] of 7.3 ×10⁵ /M. Besides, in assay [2], the result was Active. The inhibition entry in assay [3] is “Active”. Besides, the concentration for half-maximal inhibition (IC50) in assay [4] came out at 5000 nM; in assay [6], 2600 nM. In addition, the inhibition constant Ki in assay [5] was determined as 4200 nM.
On to `CC[C@H](C)[C@H](NC(=O)[C@H](CCCCN)NC(=O)[C@@H](NC(=O)[C@H](CCCCN)NC(=O)[C@H](CCCCN)NC(=O)CNC(=O)[C@H](CO)NC(=O)[C@H](CO)NC(=O)[C@@H](NC(=O)[C@H](Cc1cnc[nH]1)NC(=O)[C@H](Cc1ccccc1)NC(=O)CN)[C@@H](C)O)C(C)C)C(=O)N[C@@H](C)C(=O)N[C@@H](CCCCN)C(=O)N[C@@H](CCC(=O)O)C(=O)N[C@@H](CO)C(=O)N[C@@H](CC(C)C)C(=O)N[C@@H](CC(=O)O)C(=O)N[C@@H](CCCCN)C(=O)N[C@H](C(=O)N[C@@H](CCCCN)C(=O)N[C@@H](CC(N)=O)C(=O)N[C@@H](CC(C)C)C(=O)N[C@@H](Cc1ccccc1)C(=O)O)C(C)C`, for which the K in assay [1] was < 0.1 ×10⁵ /M. The result in assay [2] was Active. Further, the inhibition result in assay [3] is “Active”.
Regarding `CC[C@H](C)[C@H](NC(=O)[C@H](CCCCN)NC(=O)[C@@H](NC(=O)[C@H](CCCCN)NC(=O)[C@H](CCCCN)NC(=O)CNC(=O)[C@H](CO)NC(=O)[C@H](C)NC(=O)[C@@H](NC(=O)[C@@H](N)Cc1cnc[nH]1)[C@@H](C)O)C(C)C)C(=O)N[C@@H](C)C(=O)N[C@@H](CCCCN)C(=O)N[C@@H](CCC(=O)O)C(=O)N[C@@H](CO)C(=O)N[C@@H](CC(C)C)C(=O)N[C@@H](CC(=O)O)C(=O)N[C@@H](CCCCN)C(=O)N[C@H](C(=O)N[C@@H](CCCCN)C(=O)N[C@@H](CC(N)=O)C(=O)N[C@@H](CC(C)C)C(=O)N[C@@H](Cc1ccccc1)C(=O)N[C@@H](CC(=O)O)C(=O)N[C@@H](CCC(=O)O)C(=O)O)C(C)C` (H-HTASGKKVKIAKESLDKVKNLFDE-OH), the result in assay [2] was Active.
`CC[C@H](C)[C@H](NC(=O)[C@H](CCCCN)NC(=O)[C@@H](NC(=O)[C@H](CCCCN)NC(=O)[C@H](CCCCN)NC(=O)CNC(=O)[C@H](CO)NC(=O)[C@H](C)NC(=O)[C@@H](NC(=O)[C@H](Cc1cnc[nH]1)NC(=O)[C@H](Cc1ccccc1)NC(=O)CN)[C@@H](C)O)C(C)C)C(=O)N[C@@H](CO)C(=O)N[C@@H](CCCCN)C(=O)N[C@@H](CCC(=O)O)C(=O)N[C@@H](CO)C(=O)N[C@@H](CC(C)C)C(=O)N[C@@H](CC(=O)O)C(=O)N[C@@H](CCCCN)C(=O)N[C@H](C(=O)N[C@@H](CCCCN)C(=O)N[C@@H](CC(N)=O)C(=O)N[C@@H](CC(C)C)C(=O)N[C@@H](Cc1ccccc1)C(=O)O)C(C)C` came in with a K in assay [1] of 5.2 ×10⁵ /M. In assay [2], the outcome was Active. The inhibition result in assay [3] was “Active”. Besides, the values for the IC50 in assay [4] and in assay [6] were 2500 nM and 2000 nM, respectively. In addition, in assay [5], the Ki was found to be 1800 nM.
Take `CC[C@H](C)[C@H](NC(=O)[C@H](CCCCN)NC(=O)[C@@H](NC(=O)[C@H](CCCCN)NC(=O)[C@H](CCCCN)NC(=O)CNC(=O)[C@H](CO)NC(=O)[C@H](C)NC(=O)[C@@H](NC(=O)[C@H](Cc1ccc(O)cc1)NC(=O)[C@H](Cc1ccccc1)NC(=O)CN)[C@@H](C)O)C(C)C)C(=O)N[C@@H](CO)C(=O)N[C@@H](CCCCN)C(=O)N[C@@H](CCC(=O)O)C(=O)N[C@@H](CO)C(=O)N[C@@H](CC(C)C)C(=O)N[C@@H](CC(=O)O)C(=O)N[C@@H](CCCCN)C(=O)N[C@H](C(=O)N[C@@H](CCCCN)C(=O)N[C@@H](CC(N)=O)C(=O)N[C@@H](Cc1ccccc1)C(=O)N[C@@H](Cc1ccccc1)C(=O)O)C(C)C` (H-GFYTASGKKVKISKESLDKVKNFF-OH): the inhibition entry in assay [3] was “Active”. In addition, the 50% inhibitory concentration (IC50) in assay [4] amounted to 1500 nM; in assay [6], 1050 nM. Further, the Ki in assay [5] is 750 nM.
For `CC[C@H](C)[C@H](NC(=O)[C@H](CCCCN)NC(=O)[C@@H](NC(=O)[C@H](CCCCN)NC(=O)[C@H](CCCCN)NC(=O)CNC(=O)[C@H](CO)NC(=O)[C@H](C)NC(=O)[C@@H](NC(=O)[C@H](Cc1ccc(O)cc1)NC(=O)[C@H](Cc1ccccc1)NC(=O)CN)[C@@H](C)O)C(C)C)C(=O)N[C@@H](C)C(=O)N[C@@H](CCCCN)C(=O)N[C@@H](CCC(=O)O)C(=O)N[C@@H](CO)C(=O)N[C@@H](CC(C)C)C(=O)N[C@@H](CC(=O)O)C(=O)N[C@@H](CCCCN)C(=O)N[C@H](C(=O)N[C@@H](CCCCN)C(=O)N[C@@H](CC(N)=O)C(=O)N[C@@H](CC(C)C)C(=O)N[C@@H](Cc1ccccc1)C(=O)O)C(C)C`, the K in assay [1] turned out to be 3.8 ×10⁵ /M. Further, in assay [2], the result was Active. Also, in assay [3], the inhibition result was “Active”. The IC50 in assay [4] is 7000 nM; in assay [6] it was 2700 nM. The inhibition constant (Ki) in assay [5] was determined as 6000 nM.
